The values below are quoted from earlier work in patent publication US10092495B2, “Use of a composition comprising avocado perseose in the protection of epidermal stem cells” (LABORATOIRES EXPANSCIENCE, priority 2013, dated 2018).

The subject of the series is Ehrlich ascites tumor cells. To be noted: perseitol associated with a potassium ion.

Turning to `OCC(O)C(O)C(O)C(O)C(O)CO` (stereo not shown) [perseitol, Perseitol], the “incorporation of 3H-leucine” value is recorded as “inhibit”.
